In patent US8471061B2 (priority 2004, dated 2013):
Where “and” joins values, the source holds several entries; their conditions need not be identical. Identical values can stand only once. Like-named read-outs stand apart in the source and are kept apart here.

Legend:
[1] = system: Escherichia coli WP2 uvrA; assay: Back mutation test, WP2uvrA; format: cell-based; settings: for number of back mutation, single plates: Phosphate
Method: A test was carried out in accordance with the “Standard of Mutagenicity Tests Using Microorganisms” (Ministry of Labor Notification No. 77, 1988) (partial revision by Ministry of Labor Notification No. 67, 1997) and “Regarding the Tests Concerning Novel Chemical Substances and the like” (dated Nov. 21, 2003: Yaku-Shoku-Hatsu No. 1121002, 2003.11.13 Sei-Kyoku, No. 2, Kan-Ho-Ki-Hatsu No. 031121002). To 0.1 ml of a solution prepared by dissolving 5% (w/v) of 5-aminolevulinic acid phosphate in distilled water (Wako Pure Chemical Industries), 0.5 ml of 0.1 M sodium-phosphate buffer (pH 7.4) (0.5 ml S9 mix in the case of metabolism activation test) was added, and 0.1 ml of each test strain suspension (5 strains of histidine-less Salmonella typhimurium TA 100, TA 98, TA 1535 and TA 1537 and tryptophan-less Escherichia coli WP2 uvrA were used (Japan Bioassay Research Center)) was further added thereto, followed by pre-incubation at 37° C. for 20 minutes while shaking. After completion of the culturing, 2.0 ml of top agar kept at 45° C. in advance was added thereto and layered on a minimum glucose agar plate medium. In this case, 2 plates were arranged for each dosage. However, 3 plates were arranged for a solvent control (negative control). […] In the measurement, an inner area of about 80 mm in diameter of a plate of 86 mm in diameter (84 mm in inner diameter) was measured using an automatic colony analyzer (CA-11: manufactured by System Science), and calculated by carrying out area correction and counting loss correction using a personal computer. However, since reliability of the automatic colony analyzer is reduced when the number of colonies is 1,500 or more, 5 points in the plate were manually measured under the stereoscopic microscope to carry out area correction of the average value. A dosage setting test was carried out on 7 dosages diluted at a common ratio of 4, using a dosage of 5,000 μg/plate as the maximum which is the maximum dosage defined by the guideline. […] Growth inhibition of the strains by this substance to be tested was not found. […] Thus, this test was carried out by setting 5 dosages diluted at a common ratio of 2, using a dosage of 5,000 μg/plate as the maximum which is the maximum dosage defined by the guideline.

[2] = system: Salmonella typhimurium TA 1537; settings: TA1537
Method: (§1) A test was carried out in accordance with the “Standard of Mutagenicity Tests Using Microorganisms” (Ministry of Labor Notification No. 77, 1988) (partial revision by Ministry of Labor Notification No. 67, 1997) and “Regarding the Tests Concerning Novel Chemical Substances and the like” (dated Nov. 21, 2003: Yaku-Shoku-Hatsu No. 1121002, 2003.11.13 Sei-Kyoku, No. 2, Kan-Ho-Ki-Hatsu No. 031121002). To 0.1 ml of a solution prepared by dissolving 5% (w/v) of 5-aminolevulinic acid phosphate in distilled water (Wako Pure Chemical Industries), 0.5 ml of 0.1 M sodium-phosphate buffer (pH 7.4) (0.5 ml S9 mix in the case of metabolism activation test) was added, and 0.1 ml of each test strain suspension (5 strains of histidine-less Salmonella typhimurium TA 100, TA 98, TA 1535 and TA 1537 and tryptophan-less Escherichia coli WP2 uvrA were used (Japan Bioassay Research Center)) was further added thereto, followed by pre-incubation at 37° C. for 20 minutes while shaking. After completion of the culturing, 2.0 ml of top agar kept at 45° C. in advance was added thereto and layered on a minimum glucose agar plate medium. In this case, 2 plates were arranged for each dosage. However, 3 plates were arranged for a solvent control (negative control). […] In the measurement, an inner area of about 80 mm in diameter of a plate of 86 mm in diameter (84 mm in inner diameter) was measured using an automatic colony analyzer (CA-11: manufactured by System Science), and calculated by carrying out area correction and counting loss correction using a personal computer. However, since reliability of the automatic colony analyzer is reduced when the number of colonies is 1,500 or more, 5 points in the plate were manually measured under the stereoscopic microscope to carry out area correction of the average value. A dosage setting test was carried out on 7 dosages diluted at a common ratio of 4, using a dosage of 5,000 μg/plate as the maximum which is the maximum dosage defined by the guideline.

[3] = system: Salmonella typhimurium TA 1535; settings: TA1535
Method: as §1

[4] = Degradation test by sterilization; format: physicochemical; settings: 50 mg heat sterilized, 121° C., 20 minutes, 1.5 kgf/cm^2
Method: Firstly, 50 mg of 5-aminolevulinic acid p-toluenesulfonate or 5-aminolevulinic acid hydrochloride was heat sterilized (121° C., 20 minutes, 1.5 kgf/cm^2). After confirming that there is no change in weight before and after the sterilization, degree of degradation of 5-aminolevulinic acid before and after the sterilization was verified by the method described in a reference (Clin. Chem., 36/8, 1494 (1990)).

[5] = S9 Mix(−), 1250 μg/plate, Phosphate

## NCC(=O)CCC(=O)O.O=P(O)(O)O [5-aminolevulinic acid phosphate, 5-aminolevulinic Acid Phosphate]
[1]; S9 Mix(+), 313 μg/plate
  number of back mutation, mean (in parentheses): (24) colonies/plate
  number of back mutation, single plates: 31 colonies/plate and 17 colonies/plate
[1]; S9 Mix(+), 625 μg/plate
  number of back mutation, mean (in parentheses): (32) colonies/plate
  number of back mutation, single plates: 40 colonies/plate and 24 colonies/plate
[1]; S9 Mix(+), 1250 μg/plate
  number of back mutation, mean (in parentheses): (32) colonies/plate
  number of back mutation, single plates: 34 colonies/plate and 29 colonies/plate
[1]; S9 Mix(+), 2500 μg/plate
  number of back mutation, mean (in parentheses): (25) colonies/plate
  number of back mutation, single plates: 23 colonies/plate and 27 colonies/plate
[1]; S9 Mix(+), 5000 μg/plate
  number of back mutation, mean (in parentheses): (28) colonies/plate
  number of back mutation, single plates: 25 colonies/plate and 30 colonies/plate
[1]; S9 Mix(−), 313 μg/plate
  number of back mutation, mean (in parentheses): (31) colonies/plate
  number of back mutation, single plates: 25 colonies/plate and 36 colonies/plate
[1]; S9 Mix(−), 625 μg/plate
  number of back mutation, mean (in parentheses): (28) colonies/plate
  number of back mutation, single plates: 27 colonies/plate and 28 colonies/plate
[1]; S9 Mix(−), 1250 μg/plate
  number of back mutation, mean (in parentheses): (31) colonies/plate
  number of back mutation, single plates: 28 colonies/plate and 33 colonies/plate
[1]; S9 Mix(−), 2500 μg/plate
  number of back mutation, mean (in parentheses): (27) colonies/plate
  number of back mutation, single plates: 25 colonies/plate and 28 colonies/plate
[1]; S9 Mix(−), 5000 μg/plate
  number of back mutation, mean (in parentheses): (31) colonies/plate
  number of back mutation, single plates: 25 colonies/plate and 36 colonies/plate
[2]; S9 Mix(+), 313 μg/plate
  number of back mutation, mean (in parentheses): (5) colonies/plate
[2]; S9 Mix(+), 625 μg/plate
  number of back mutation, mean (in parentheses): (6) colonies/plate
[2]; S9 Mix(+), 1250 μg/plate
  number of back mutation, mean (in parentheses): (6) colonies/plate
  number of back mutation, single plates: 6 colonies/plate
[2]; S9 Mix(+), 2500 μg/plate
  number of back mutation, mean (in parentheses): (4) colonies/plate
[2]; S9 Mix(+), 2500 μg/plate, Phosphate
  number of back mutation, single plates: 5 colonies/plate and 3 colonies/plate
[2]; S9 Mix(+), 5000 μg/plate
  number of back mutation, mean (in parentheses): (4) colonies/plate
[2]; S9 Mix(−), 313 μg/plate
  number of back mutation, mean (in parentheses): (2) colonies/plate
[2]; S9 Mix(−), 625 μg/plate
  number of back mutation, mean (in parentheses): (3) colonies/plate
[2]; S9 Mix(−), 1250 μg/plate
  number of back mutation, mean (in parentheses): (3) colonies/plate
[2]; [5]
  number of back mutation, single plates: 4 colonies/plate and 2 colonies/plate
[2]; S9 Mix(−), 2500 μg/plate
  number of back mutation, mean (in parentheses): (2) colonies/plate
  number of back mutation, single plates: 2 colonies/plate
[2]; S9 Mix(−), 5000 μg/plate
  number of back mutation, mean (in parentheses): (3) colonies/plate
[3]; S9 Mix(+), 313 μg/plate
  number of back mutation, mean (in parentheses): (11) colonies/plate
[3]; S9 Mix(+), 313 μg/plate, Phosphate
  number of back mutation, single plates: 11 colonies/plate and 10 colonies/plate
[3]; S9 Mix(+), 625 μg/plate
  number of back mutation, mean (in parentheses): (10) colonies/plate
[3]; S9 Mix(+), 1250 μg/plate
  number of back mutation, mean (in parentheses): (12) colonies/plate
[3]; S9 Mix(+), 1250 μg/plate, Phosphate
  number of back mutation, single plates: 10 colonies/plate and 14 colonies/plate
[3]; S9 Mix(+), 2500 μg/plate
  number of back mutation, mean (in parentheses): (8) colonies/plate
  number of back mutation, single plates: 8 colonies/plate
[3]; S9 Mix(+), 5000 μg/plate
  number of back mutation, mean (in parentheses): (7) colonies/plate
[3]; S9 Mix(+), 5000 μg/plate, Phosphate
  number of back mutation, single plates: 6 colonies/plate and 8 colonies/plate
[3]; S9 Mix(−), 313 μg/plate
  number of back mutation, mean (in parentheses): (10) colonies/plate
  number of back mutation, single plates: 10 colonies/plate
[3]; S9 Mix(−), 625 μg/plate
  number of back mutation, mean (in parentheses): (10) colonies/plate
[3]; S9 Mix(−), 1250 μg/plate
  number of back mutation, mean (in parentheses): (10) colonies/plate
[3]; [5]
  number of back mutation, single plates: 8 colonies/plate and 11 colonies/plate
[3]; S9 Mix(−), 2500 μg/plate
  number of back mutation, mean (in parentheses): (6) colonies/plate
[3]; S9 Mix(−), 2500 μg/plate, Phosphate
  number of back mutation, single plates: 6 colonies/plate and 5 colonies/plate
[3]; S9 Mix(−), 5000 μg/plate
  number of back mutation, mean (in parentheses): (7) colonies/plate

## Cl.NCC(=O)CCC(=O)O [5-aminolevulinic acid hydrochloride, reference compound]
[4]
  Degradation degree (%): 6.6%
